Test results reported in patent EP0437336B1, “Biophosphoryl hydrazines and their use as pesticides” (priority 1990, dated 1991).
In brackets after ≈: the same amount, converted by molar mass. Read-outs that look alike come from different tables or passages of the source.

How the values were obtained:
Green Peach Aphid [1] = assay: Biological Method D: Foliar Insecticidal Activity Test, aphid test; type: in vivo, Myzus persicae; design: key: I = inactive at concentration tested; conditions: compounds a-r
Method: (§1) Biological Method D: Foliar Insecticidal Activity Test
(§2) In evaluating the foliar insecticidal activity of the compounds of this invention against insects and mites, the following test procedures were employed.
(§3) Not all compounds were tested at each of the several concentrations stated above. Test concentrations of a compound were selected as those most likely to differentiate dose response of a particular compound toward a particular test insect.
(§4) Initial evaluations were made on one or more of the following pests:
(§5) For the aphid test, infested broccoli (Brassica oleracea italica var. DiCicco) leaves containing about 50 aphids were placed in a Petri dish lid on a moistened piece of cotton. The leaves were then sprayed to thorough wetness with the test solution using a rotating turntable, held for twenty-four hours and then the percentage killed was determined.
(§6) The mortalities obtained in this manner were plotted on logarithmic probability paper.
(§7) The rotating turntable consists of a fixed, continuously operating spray nozzle under which targets are rotated at a fixed speed and distance. If the target is a Petri dish (such as for the bean beetle, armyworm, mite, or aphid tests), the distance from the nozzle is 38.1 cm (15 inches). If the target is a Mason jar (such as for the boll weevil test), the distance from the nozzle is 17.8 cm (7 inches). The nozzle is located 8 inches from the rotating shaft. The targets on individual platforms revolve around the shaft at 1 revolution per 20 seconds but only a brief portion of this time occurs in the spray path. Targets pass only once under the nozzle and then are removed to drying hoods.
(§8) The nozzle used is a 1/4 JCO Spraying Systems (Wheaton, Illinois) air atomizing nozzle equipped with a No. 2850 fluid cap and a No. 70 air cap. At the 68.95 x 10³ Pa gauge (10 psig) air pressure used and with liquid siphon feed, 1.89 ℓ/hr [0.5 GPH (gallons per hour)] are delivered in a round spray pattern with a 21 degree spray angle. Targets are misted with spray droplets to the point that the droplets coalesce to form a uniform thin film insufficient to drown test organisms.

Southern Armyworm [2] = assay: Biological Method D: Foliar Insecticidal Activity Test, Southern Armyworm test; type: in vivo, Spodoptera eridania; design: key: I = inactive at concentration tested; conditions: compounds a-r
Method: as §1, §2, §3, §4
For the Mexican Bean Beetle and Southern armyworm tests, individual lima bean (Phaseolus limeniss var. Woods' Prolific) leaves were placed on moistened pieces of filter paper in Petri dishes. The leaves were then sprayed with the test solution using a rotating turntable and allowed to dry. The dishes were then infested with 10 third instar larvae of either the Mexican Been Beetle or the Southern Armyworm. The dishes were then covered. Percent mortality was determined for each species and spray concentration at 48 and 96 hours after treatment.
as §6, §7, §8

Southern Armyworm [3] = assay: as above; type: in vivo, Spodoptera eridania; conditions: Spodoptera eridania, Southern Armyworm
Mexican Bean Beetle = assay: Biological Method D: Foliar Insecticidal Activity Test, Mexican Bean Beetle test; type: in vivo, Epilachna varivestis; conditions: Epilachna varivestis, Mexican Bean Beetle
Green Peach Aphid [4] = assay: Biological Method D: Foliar Insecticidal Activity Test, aphid test; type: in vivo, Myzus persicae; conditions: Myzus persicae, Green Peach Aphid
Method: as §1, §2, §3, §4, §5, §6, §7, §8

Boll Weevil [5] = assay: Biological Method D: Foliar Insecticidal Activity Test, boll weevil test; type: in vivo, Anthonomous grandis; design: key: I = inactive at concentration tested; conditions: compounds a-r
Method: as §1, §2, §3, §4
For the boll weevil test, 10 adult weevils were placed in a 0.24 ℓ (0.5 pint) glass Mason jar containing a small cube of apple. The weevils were confined to the jar by fiberglass screen mesh secured by a screw-type rim cap. The jars were then sprayed with the test solution using a rotating turntable; directing the spray through the mesh into the jar. The percentage killed was determined after forty-eight and ninety six hours.
as §6, §7, §8

Two-Spotted Spider Mite = assay: Biological Method D: Foliar Insecticidal Activity Test, mite test; type: in vivo, Tetranychus urticae; design: key to LC50 TSM: I = inactive at concentration listed; conditions: Two-Spotted Spider Mite; for LC50: Tetranychus urticae
Boll Weevil [6] = assay: Biological Method D: Foliar Insecticidal Activity Test, boll weevil test; type: in vivo, Anthonomous grandis; conditions: Boll Weevil, compounds a-r
[7] = test system: southern corn rootworm, Diabrotica undecimpunctata howardi; conditions: for foliar systemic nonagressive Method B crw % control at 0.56 kg/ha (0.5 lb/acre): percent control relative to infested check, from root damage ratings, 14 days post-spraying
[8] = test system: southern corn rootworm, Diabrotica undecimpunctata howardi; assay: Biological Method A: Corn Rootworm Screening Test (treated non-aggressive soil); conditions: soil concentration giving 90% mortality, 10 days at 27°C
Southern Armyworm [9] = assay: Biological Method D: Foliar Insecticidal Activity Test, Southern Armyworm test; type: in vivo, Spodoptera eridania; design: key: I = inactive at concentration listed
Boll Weevil [10] = assay: Biological Method D: Foliar Insecticidal Activity Test, boll weevil test; type: in vivo, Anthonomous grandis; design: key: I = inactive at concentration listed
[11] = test system: southern corn rootworm, Diabrotica undecimpunctata howardi; conditions: at-planting soil application
Green Peach Aphid [12] = assay: Biological Method D: Foliar Insecticidal Activity Test, aphid test; type: in vivo, Myzus persicae; design: key: I = inactive at concentration listed
[13] = foliar, 48 hrs, compounds a-r, read-out: LC 50 AW 48 hrs.
[14] = foliar, 96 hrs, compounds a-r, read-out: LC 50 AW 96 hrs.
[15] = foliar, 48 hrs, compounds a-r, read-out: LC 50 BB 48 hrs.
[16] = foliar, 96 hrs, compounds a-r, read-out: LC 50 BB 96 hrs.
[17] = foliar, compounds a-r, read-out: LC 50 TSM
[18] = Method D foliar test, read-out: LC50 TSM
[19] = Method D foliar test, 96 hrs, read-out: LC50 AW 96 hrs
[20] = Method D foliar test, 48 hrs, read-out: LC50 BB 48 hrs.
[21] = Method D foliar test, 96 hrs, read-out: LC50 BB 96 hrs

CCOP(=S)(NN(C)P(=S)(OC)OC)OCC(C)(C)C (stereo not drawn) [r]
LC50 GPA (Green Peach Aphid [1]): I
LC50 AW 48 hrs (Southern Armyworm [2]): I
LC50 AW 96 hrs (Southern Armyworm [2]): I

CCCOP(=S)(NN(C)P(=S)(OCC)OCC)OCC (stereo not drawn) [c, N-(O,O-diethylthiophosphoryl) N′-(O-ethyl O-propylthiophosphoryl) N-methyl hydrazine]
LC50 (Southern Armyworm [3]; [13]): 150 µg/mL (≈ 412 µM)
LC50 (Southern Armyworm [3]; [14]): 150 µg/mL (≈ 412 µM)
LC50 (Mexican Bean Beetle; [15]): 150 µg/mL (≈ 412 µM)
LC50 (Mexican Bean Beetle; [16]): 150 µg/mL (≈ 412 µM)
LC50 (Green Peach Aphid [4]; foliar, compounds a-r): 290 µg/mL (≈ 796 µM)
LC50 BW 48 hrs (Boll Weevil [5]): I
LC50 BW 96 hrs (Boll Weevil [5]): I
LC50 (Two-Spotted Spider Mite; [17]): 150 µg/mL (≈ 412 µM)

CCOP(=O)(SC(C)CC)N(C)N(C)P(=S)(OC)OC (stereo not drawn) [m]
LC50 (Mexican Bean Beetle; [15]): 600 µg/mL (≈ 1650 µM)
LC50 (Mexican Bean Beetle; [16]): 38 µg/mL (≈ 104 µM)
LC50 BW 48 hrs (Boll Weevil [6]): 740 ppm
LC50 BW 96 hrs (Boll Weevil [6]): 740 ppm
LC50 (Two-Spotted Spider Mite; [17]): 150 µg/mL (≈ 412 µM)
LC50 GPA (Green Peach Aphid [1]): I
LC50 AW 48 hrs (Southern Armyworm [2]): I
LC50 AW 96 hrs (Southern Armyworm [2]): I

CCOP(=O)(NNP(=S)(OCC)OCC)OCC [Compound 2, reference compound]
LC50 (Green Peach Aphid [4]; Method D foliar test): 150 µg/mL (≈ 468 µM)
foliar systemic nonagressive Method B crw % control at 0.56 kg/ha (0.5 lb/acre) [7]: 0%
primary nonagressive Method A crw LC90 [8]: 0.87 ppm
LC50 (Two-Spotted Spider Mite; [18]): 540 µg/mL (≈ 1690 µM)
LC50 AW 48 hrs (Southern Armyworm [9]): I
LC50 AW 96 hrs (Southern Armyworm [9]): I
LC50 BW 48 hrs (Boll Weevil [10]): I
LC50 BW 96 hrs (Boll Weevil [10]): I

CCOP(=O)(SC(C)CC)N(C)NP(=S)(OCC)OCC(C)(C)C (stereo not drawn) [k]
LC50 (Mexican Bean Beetle; [16]): 52 µg/mL (≈ 124 µM)
LC50 (Green Peach Aphid [4]; foliar, compounds a-r): 300 µg/mL (≈ 713 µM)
LC50 BW 48 hrs (Boll Weevil [5]): I
LC50 BW 96 hrs (Boll Weevil [5]): I
LC50 AW 48 hrs (Southern Armyworm [2]): I
LC50 AW 96 hrs (Southern Armyworm [2]): I

CCOP(=S)(NN(C)P(=S)(OCC)OCC)OCC [a, N,N′-bis-(O,O-diethylthiophosphoryl) N-methyl hydrazine]
LC50 (Southern Armyworm [3]; [13]): 150 µg/mL (≈ 428 µM)
LC50 (Southern Armyworm [3]; [14]): 150 µg/mL (≈ 428 µM)
LC50 (Mexican Bean Beetle; [15]): 500 µg/mL (≈ 1430 µM)
LC50 (Mexican Bean Beetle; [16]): 420 µg/mL (≈ 1200 µM)
LC50 (Green Peach Aphid [4]; foliar, compounds a-r): 150 µg/mL (≈ 428 µM)
LC50 BW 48 hrs (Boll Weevil [5]): I
LC50 BW 96 hrs (Boll Weevil [5]): I
LC50 (Two-Spotted Spider Mite; [17]): 150 µg/mL (≈ 428 µM)

CCOP(=S)(OCC)N(C)N(C)P(=S)(OCC)OC(C)C (stereo not drawn) [b, N-(O,O-diethylthiophosphoryl) N′-(O-ethyl O-isopropylthiophosphoryl) N,N′-dimethyl hydrazine]
LC50 (Mexican Bean Beetle; [15]): 150 µg/mL (≈ 396 µM)
LC50 (Mexican Bean Beetle; [16]): 150 µg/mL (≈ 396 µM)
LC50 (Green Peach Aphid [4]; foliar, compounds a-r): 36 µg/mL (≈ 95.1 µM)
LC50 BW 48 hrs (Boll Weevil [6]): 740 ppm
LC50 BW 96 hrs (Boll Weevil [6]): 150 ppm
LC50 (Two-Spotted Spider Mite; [17]): 5.5 µg/mL (≈ 14.5 µM)
LC50 AW 48 hrs (Southern Armyworm [2]): I
LC50 AW 96 hrs (Southern Armyworm [2]): I

CCOP(=S)(OCC)N(C)NP1(=S)OCC(C)(C)CO1 [n]
LC50 (Mexican Bean Beetle; [15]): 150 µg/mL (≈ 414 µM)
LC50 (Mexican Bean Beetle; [16]): 150 µg/mL (≈ 414 µM)
LC50 BW 48 hrs (Boll Weevil [5]): I
LC50 BW 96 hrs (Boll Weevil [5]): I
LC50 GPA (Green Peach Aphid [1]): I
LC50 AW 48 hrs (Southern Armyworm [2]): I
LC50 AW 96 hrs (Southern Armyworm [2]): I

CCCOP(=S)(NNP(=S)(OCC)OCCC)OCC (stereo not drawn) [Compound 29, reference compound]
LC50 (Southern Armyworm [3]; Method D foliar test, 48 hrs, read-out: LC50 AW 48 hrs): 420 µg/mL (≈ 1150 µM)
LC50 (Southern Armyworm [3]; [19]): 180 µg/mL (≈ 494 µM)
LC50 (Mexican Bean Beetle; [20]): 150 µg/mL (≈ 412 µM)
LC50 (Mexican Bean Beetle; [21]): 150 µg/mL (≈ 412 µM)
foliar systemic nonagressive Method B crw % control at 0.56 kg/ha (0.5 lb/acre) [7]: 38%
primary nonagressive Method A crw LC90 [8]: 0.09 ppm
LC50 (Two-Spotted Spider Mite; [18]): 150 µg/mL (≈ 412 µM)
secondary aggressive Method C crw LC50 ([11]; rated 17 days post-infestation): ~3.03 kg/ha
secondary aggressive Method C crw LC50 ([11]; value in brackets): ~2.7 lb/acre
LC50 GPA (Green Peach Aphid [12]): I
LC50 BW 48 hrs (Boll Weevil [10]): I
LC50 BW 96 hrs (Boll Weevil [10]): I

COP(=S)(NN(C)P(=S)(OC)OC)OC [h]
LC50 BW 48 hrs (Boll Weevil [5]): I
LC50 BW 96 hrs (Boll Weevil [5]): I
LC50 GPA (Green Peach Aphid [1]): I
LC50 AW 48 hrs (Southern Armyworm [2]): I
LC50 AW 96 hrs (Southern Armyworm [2]): I

CCOP(=S)(NN(C)P(=S)(OCC)OC(C)C)OCC (stereo not drawn) [q]
LC50 (Mexican Bean Beetle; [15]): 300 µg/mL (≈ 823 µM)
LC50 (Mexican Bean Beetle; [16]): 72 µg/mL (≈ 198 µM)
LC50 BW 96 hrs (Boll Weevil [5]): I
LC50 GPA (Green Peach Aphid [1]): I
LC50 AW 48 hrs (Southern Armyworm [2]): I
LC50 AW 96 hrs (Southern Armyworm [2]): I

CCCOP(=S)(NNP(=S)(OCC)SC(C)C)OCCC (stereo not drawn) [Compound 23]
LC50 (Mexican Bean Beetle; [20]): 62 µg/mL (≈ 157 µM)
LC50 (Mexican Bean Beetle; [21]): 78 µg/mL (≈ 198 µM)
LC50 (Green Peach Aphid [4]; Method D foliar test): 150 µg/mL (≈ 380 µM)
pest or weed control at 560 g/ha ([7]; Diabrotica undecimpunctata, in Zea mays, foliar, 336 h, read-out: foliar systemic nonagressive Method B crw % control at 0.56 kg/ha (0.5 lb/acre)): 16%
primary nonagressive Method A crw LC90 [8]: 0.55 ppm
LC50 (Two-Spotted Spider Mite; [18]): 150 µg/mL (≈ 380 µM)
LC50 AW 48 hrs (Southern Armyworm [9]): I
LC50 AW 96 hrs (Southern Armyworm [9]): I
LC50 BW 48 hrs (Boll Weevil [10]): I
LC50 BW 96 hrs (Boll Weevil [10]): I

CCOP(=S)(NN(C)P(=S)(OCC)OCC)OCC(C)(C)C (stereo not drawn) [j]
LC50 BW 48 hrs (Boll Weevil [5]): I
LC50 BW 96 hrs (Boll Weevil [5]): I
LC50 GPA (Green Peach Aphid [1]): I
LC50 AW 48 hrs (Southern Armyworm [2]): I
LC50 AW 96 hrs (Southern Armyworm [2]): I

CCOP(=S)(NNP(=S)(OCC)OCC)OCC [Compound 1, reference compound]
LC50 (Southern Armyworm [3]; [19]): 500 µg/mL (≈ 1490 µM)
LC50 (Green Peach Aphid [4]; Method D foliar test): 500 µg/mL (≈ 1490 µM)
foliar systemic nonagressive Method B crw % control at 0.56 kg/ha (0.5 lb/acre) [7]: 16%
primary nonagressive Method A crw LC90 [8]: 0.5 ppm
LC50 TSM (Two-Spotted Spider Mite; Method D foliar test): I
LC50 AW 48 hrs (Southern Armyworm [9]): I
LC50 BW 48 hrs (Boll Weevil [10]): I
LC50 BW 96 hrs (Boll Weevil [10]): I
